According to patent US7135466B2 (Kirin Beer Kabushiki Kaisha, priority 1999, dated 2006):
Read-outs that look alike come from different tables or passages of the source.

Key:
PDGF-Ra = molecular target: T1, PDGF-Ra (Homo sapiens, UniProt P16234); assay: Inhibitory activity against PDGF-Ra phosphorylation by PDGF-AA stimulation using G292; type: cell-based; conditions: for IC50: > means inhibition at indicated concentration not more than 50%, < and << not less than 50%, read-out: PDGF (E) IC50
T1 construct: host or cells: G-292 human osteosarcoma cells
Method in brief: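 Phospho-PDGF-Ra ELISA: capture with PY-20 antiphosphotyrosine, detection with anti-PDGF-Ra and peroxidase secondary, read at 450 nm. Lysates came from G-292 osteosarcoma cells starved in 0.1% FBS, compound-treated 1 hr at 37° C, and stimulated with 50 ng/ml PDGF-AA for 5 min.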

c-kit = molecular target: T2, c-kit (Homo sapiens, UniProt P10721); assay: Inhibitory activity against c-kit autophosphorylation (MO7e cells, h-SCF); type: cell-based; conditions: for IC50: MO7e cells, read-out: c-kit IC50; for inhibition at 1 µM: Mo7e, at 1000 nM
T2 construct: MO7e (human megakaryocytic leukemia cell line) which had been arrested for 20 hr; endogenous in cells; host or cells: MO7e human megakaryocytic leukemia cell line
Method in brief: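 MO7e cells, arrested for 20 hr, were pretreated with test compound in DMSO for 1 hr and then stimulated with 50 ng/ml h-SCF for 5 min before lysis. Lysates were captured on immobilized anti-phosphotyrosine PY-20, probed with anti-c-kit antibody and HRP anti-rabbit IgG, and read colorimetrically at 450 nm.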

[1] = figure within parentheses in −( ) or >1000( )

T1 sequence (P16234 24-1089): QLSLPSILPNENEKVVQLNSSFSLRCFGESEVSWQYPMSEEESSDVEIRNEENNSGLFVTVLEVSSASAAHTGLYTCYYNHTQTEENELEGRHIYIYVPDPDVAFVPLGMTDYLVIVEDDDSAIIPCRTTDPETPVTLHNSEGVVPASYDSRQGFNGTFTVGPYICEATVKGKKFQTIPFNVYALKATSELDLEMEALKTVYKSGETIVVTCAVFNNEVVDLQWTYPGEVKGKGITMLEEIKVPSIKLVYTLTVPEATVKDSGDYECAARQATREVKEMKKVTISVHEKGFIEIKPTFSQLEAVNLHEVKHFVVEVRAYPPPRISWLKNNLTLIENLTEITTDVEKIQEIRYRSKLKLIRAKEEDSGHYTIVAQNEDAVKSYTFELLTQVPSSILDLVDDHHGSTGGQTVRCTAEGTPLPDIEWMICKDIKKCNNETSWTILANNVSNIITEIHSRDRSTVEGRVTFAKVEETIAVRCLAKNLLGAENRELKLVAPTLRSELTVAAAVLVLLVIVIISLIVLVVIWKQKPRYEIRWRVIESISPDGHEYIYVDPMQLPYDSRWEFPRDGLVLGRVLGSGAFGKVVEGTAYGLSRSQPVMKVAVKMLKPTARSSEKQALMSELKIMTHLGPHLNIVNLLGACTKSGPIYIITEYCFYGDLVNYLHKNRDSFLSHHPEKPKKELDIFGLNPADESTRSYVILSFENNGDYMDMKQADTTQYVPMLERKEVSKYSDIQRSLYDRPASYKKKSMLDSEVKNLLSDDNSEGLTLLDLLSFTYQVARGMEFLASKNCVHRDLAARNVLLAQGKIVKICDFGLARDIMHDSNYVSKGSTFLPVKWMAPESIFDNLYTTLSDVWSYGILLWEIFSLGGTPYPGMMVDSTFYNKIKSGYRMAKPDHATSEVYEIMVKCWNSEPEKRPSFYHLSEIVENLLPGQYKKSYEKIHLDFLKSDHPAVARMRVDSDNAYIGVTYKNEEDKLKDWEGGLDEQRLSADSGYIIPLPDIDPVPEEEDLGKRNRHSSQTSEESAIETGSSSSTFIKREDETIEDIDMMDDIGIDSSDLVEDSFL
T2 sequence (P10721 26-976): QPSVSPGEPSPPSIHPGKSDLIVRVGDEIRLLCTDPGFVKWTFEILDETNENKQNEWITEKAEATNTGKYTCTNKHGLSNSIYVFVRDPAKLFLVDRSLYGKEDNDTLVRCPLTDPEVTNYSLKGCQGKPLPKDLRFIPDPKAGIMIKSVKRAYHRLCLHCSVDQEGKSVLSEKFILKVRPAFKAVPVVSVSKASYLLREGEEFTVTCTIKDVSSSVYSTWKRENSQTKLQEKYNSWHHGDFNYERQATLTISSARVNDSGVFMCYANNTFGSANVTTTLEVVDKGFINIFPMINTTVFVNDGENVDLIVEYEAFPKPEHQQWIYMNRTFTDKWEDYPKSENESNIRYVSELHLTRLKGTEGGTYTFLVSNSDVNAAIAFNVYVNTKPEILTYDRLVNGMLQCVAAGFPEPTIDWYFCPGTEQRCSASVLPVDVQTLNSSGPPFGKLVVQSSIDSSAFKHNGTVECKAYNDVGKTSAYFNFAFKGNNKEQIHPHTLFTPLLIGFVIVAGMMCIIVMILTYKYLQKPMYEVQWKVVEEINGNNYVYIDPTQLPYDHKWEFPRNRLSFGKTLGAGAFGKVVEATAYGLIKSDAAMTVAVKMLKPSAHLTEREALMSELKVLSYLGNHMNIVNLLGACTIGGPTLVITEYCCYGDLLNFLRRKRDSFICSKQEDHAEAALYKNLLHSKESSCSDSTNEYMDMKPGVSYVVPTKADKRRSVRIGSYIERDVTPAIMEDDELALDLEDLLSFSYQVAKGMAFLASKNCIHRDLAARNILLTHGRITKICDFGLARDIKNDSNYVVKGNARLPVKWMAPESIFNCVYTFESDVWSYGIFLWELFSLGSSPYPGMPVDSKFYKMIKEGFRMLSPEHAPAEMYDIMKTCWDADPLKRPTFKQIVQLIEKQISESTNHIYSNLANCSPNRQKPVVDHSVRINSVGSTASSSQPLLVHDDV

Row | Structure (SMILES) | IC50 (PDGF-Ra) [nM] | IC50 (PDGF-Ra; Pharmacological Test Example 1) [nM] | IC50 (c-kit; h-SCF 50 ng/ml) [nM] | other results
1 | COc1cc2nccc(Oc3cc(C)c(NC(=S)NCCNC(C)=O)cc3C)c2cc1OC [Example 515, N-{4-[(6,7-Dimethoxy-4-quinolyl)oxy]-2,5-dimethylphenyl}-N′-(2-acetamidoethyl)thiourea] | > 100 |  |  | inhibition at 0.1 µM (PDGF-Ra; G292, figure within parentheses in >100( ), at 100 nM, read-out: PDGF (E) inhibition (%) at 100 nM): 32%; inhibition at 1 µM (c-kit; [1]): 21%
2 | COc1cc2nccc(Oc3ccc(NC(=S)NC(=O)c4ccccc4Cl)c(F)c3)c2cc1OC [Example 905, N-(2-Chlorobenzoyl)-N′-{4-[(6,7-dimethoxy-4-quinolyl)oxy]-2-fluorophenyl}thiourea] | 5 |  |  | inhibition at 1 µM (c-kit; figure in parentheses in −( )): 40%
3 | COc1cc2nccc(Oc3cc(C)c(NC(=O)OCCCCCCN(C)C)cc3C)c2cc1OC [Example 310, 6-(Dimethylamino)hexyl N-{4-[(6,7-dimethoxy-4-quinolyl)oxy]-2,5-dimethylphenyl}carbamate] |  | 67 | 607 | 
4 | COc1cc2ncnc(Oc3ccc(NC(=O)NC4CCN(Cc5ccccc5)CC4)c([N+](=O)[O-])c3)c2cc1OC [Example 606, N-{4-[(6,7-Dimethoxy-4-quinazolinyl)oxy]-2-nitrophenyl}-N′-[4-(N-benzyl)piperidinyl]urea] | 18 |  |  | IC50 (c-kit; 50 ng/ml h-SCF): 263 nM
5 | COc1cc(Oc2ncnc3cc(OC)c(OC)cc23)ccc1NC(=O)NN1CCCCC1 [Example 596, N-{4-[(6,7-Dimethoxy-4-quinazolinyl)oxy]-2-methoxyphenyl}-N′-(1-piperidinyl)urea] | 63 |  |  | IC50 (c-kit; 50 ng/ml h-SCF): 719 nM
6 | COc1cccc(OC(=O)Nc2cc(C)c(Oc3ccnc4cc(OC)c(OC)cc34)cc2C)c1 [Example 290, 3-Methoxyphenyl N-{4-[(6,7-dimethoxy-4-quinolyl)oxy]-2,5-dimethylphenyl}carbamate] |  | 47 | 281 | 
7 | CCCCCC(C)OC(=O)Nc1ccc(Oc2ccnc3cc(OC)c(OC)cc23)c(C)c1C (centres unmarked) [Example 413, 1-Methylhexyl N-{4-[(6,7-dimethoxy-4-quinolyl)oxy]-2,3-dimethylphenyl}carbamate] | 39 |  |  | IC50 (c-kit; 50 ng/ml h-SCF): 50 nM
8 | COc1cc2nccc(Oc3ccc(NC(=S)NC(=O)CCC4CCCC4)cc3F)c2cc1OC [Example 1029, N-(3-Cyclopentylpropanoyl)-N′-{4-[(6,7-dimethoxy-4-quinolyl)oxy]-3-fluorophenyl}thiourea] | 5 |  |  | IC50 (c-kit; h-SCF stimulation): 126 nM

More lines, main results first:

Row | IC50 (PDGF-Ra) [nM] | IC50 (PDGF-Ra; Pharmacological Test Example 1) [nM] | IC50 (c-kit; h-SCF 50 ng/ml) [nM] | Structure (SMILES) | other results
9 | < 10 |  |  | COc1cc2ncnc(Oc3ccc(NC(=S)NC(=O)CCC4CCCC4)cc3)c2cc1OC [Example 1132, N-(3-Cyclopentylpropanoyl)-N′-{4-[(6,7-dimethoxy-4-quinazolinyl)oxy]phenyl}thiourea] | IC50 (c-kit; h-SCF stimulation): 146 nM
10 |  | 55 | 207 | COc1cc2ncnc(Oc3ccc(NC(=O)OC4CCCC4)c(Cl)c3)c2cc1OC [Example 367, Cyclopentyl N-{2-chloro-4-[(6,7-dimethoxy-4-quinazolinyl)oxy]phenyl}carbamate] | 
11 |  | < 10 | 129 | COc1cc2ncnc(Oc3ccc(NC(=O)OCc4ccc(C(F)(F)F)cc4)cc3)c2cc1OC [Example 24, 4-(Trifluoromethyl)benzyl N-{4-[(6,7-dimethoxy-4-quinazolinyl)oxy]phenyl}carbamate] | 
12 | 22 |  |  | CCCCN(CCCC)CCNC(=O)Nc1ccc(Oc2ncnc3cc(OC)c(OC)cc23)cc1 [Example 685, N-[2-(Dibutylamino)ethyl]-N′-{4-[(6,7-dimethoxy-4-quinazolinyl)oxy]phenyl}urea] | inhibition at 1 µM (c-kit; [1]): 41%
13 |  | < 10 | 217 | COc1cc2nccc(Oc3ccc(NC(=O)OC(C)c4ccc(F)cc4)cc3)c2cc1OC (centres unmarked) [Example 102, 1-(4-Fluorophenyl)ethyl N-{4-[(6,7-dimethoxy-4-quinolyl)oxy]phenyl}carbamate] | 
14 |  | 13 | 505 | COc1cc2ncnc(Oc3ccc(NC(=O)OC(C)c4cccc(Br)c4)cc3)c2cc1OC (centres unmarked) [Example 120, 1-(3-Bromophenyl)ethyl N-{4-[(6,7-dimethoxy-4-quinazolinyl)oxy]phenyl}carbamate] | 
